From patent US9630947B2, “Therapeutic compounds and related methods of use” (OTSUKA PHARMACEUTICAL CO., LTD., priority 2009, dated 2017)

Each compound was assayed against T1, purified STEP46 enzyme (Homo sapiens, UniProt P54829) (assay: STEP46 biochemical assay (DiFMUP fluorescence phosphatase assay)). Settings: DiFMUP 10 μM, read-out: STEP IC50.
T1 sequence (P54829 1-565): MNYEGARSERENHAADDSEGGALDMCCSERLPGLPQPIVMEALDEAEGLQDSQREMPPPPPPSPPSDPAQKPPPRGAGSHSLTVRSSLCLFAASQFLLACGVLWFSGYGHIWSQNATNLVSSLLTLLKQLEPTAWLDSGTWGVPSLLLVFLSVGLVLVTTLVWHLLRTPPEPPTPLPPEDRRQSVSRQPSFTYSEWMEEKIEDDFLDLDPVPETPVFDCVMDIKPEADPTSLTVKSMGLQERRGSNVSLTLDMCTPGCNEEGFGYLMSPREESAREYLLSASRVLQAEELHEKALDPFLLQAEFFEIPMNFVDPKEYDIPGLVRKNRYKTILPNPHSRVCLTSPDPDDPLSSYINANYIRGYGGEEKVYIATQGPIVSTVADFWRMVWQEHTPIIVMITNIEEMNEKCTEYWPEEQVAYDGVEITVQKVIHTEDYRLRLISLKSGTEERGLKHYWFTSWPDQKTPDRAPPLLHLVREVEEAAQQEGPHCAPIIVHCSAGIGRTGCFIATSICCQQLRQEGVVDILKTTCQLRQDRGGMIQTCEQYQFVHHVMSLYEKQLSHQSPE
Procedure, shortened: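 Compounds preincubated 30 min at room temperature with purified STEP46 (1 ng/well) in 50 mM Hepes, 1 mM DTT, 0.02% Brij35, then 10 μM DiFMUP (final) added for 90 min at 27 °C; 2% DMSO, fluorescence at 360/460 nm. IC50 from four-parameter fit of % inhibition; activators reported as negative % inhibition at 25, 50 and 100 uM.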

SMILES	IC50 [nM]
FC(F)(F)Oc1cccc(Nc2nc(-c3cnccn3)nc3ccccc23)c1 [Compound 1150]	> 10000
CNc1nc(-c2cccnc2)nc2c(C)c(-c3ccccc3)ccc12 [Compound 1454]	> 10000
FC(F)Oc1cccc(Nc2nc(-c3ccncn3)nc3ccccc23)c1 [Compound 1208]	> 10000
CNc1nc(-c2cccnc2)nc2c(C)cc(-c3ccccc3OC)cc12 [Compound 1283]	> 10000
CNc1nc(-c2ccnnc2)nc2ccc(-c3cccc(F)c3F)cc12 [Compound 1237]	1000 to 10000
CNc1nc(-c2ccnnc2)nc2ccc(-c3ccc(F)cc3F)cc12 [Compound 1238]	1000 to 10000
CNc1nc(-c2cccnc2)nc2c(C)cc(-c3cccc(F)c3)cc12 [Compound 1280]	1000 to 10000
CNc1nc(-c2cccnc2)nc2c(C)c(-c3ccc(F)c(F)c3)ccc12 [Compound 1445]	1000 to 10000
Cc1cc(Cl)cc2c(Nc3ccc(F)c(Cl)c3)nc(-c3cnccn3)nc12 [Compound 1225]	1000 to 10000
CNc1nc(-c2cccnc2)nc2c(C)c(-c3cccc(F)c3F)ccc12 [Compound 1451]	1000 to 10000
CNc1nc(-c2cccnc2)nc2ccc(-c3ccc4sccc4c3)cc12 [Compound 1341]	1000 to 10000
N#Cc1cccc(Nc2nc(-c3ccnnc3)nc3cc(Cl)ccc23)c1 [Compound 1203]	1000 to 10000
Fc1ccc(Nc2nc(-c3cccnc3)nc3ccc(-c4cccc(Cl)c4)cc23)cc1Cl [Compound 629]	1000 to 10000
CNc1nc(-c2cccnc2)nc2cc(-c3ccc(F)cc3F)ccc12 [Compound 1372]	1000 to 10000
CCOc1ccc2nc(-c3cccnc3)nc(Nc3nc(-c4ccccc4)cs3)c2c1 [Compound 473]	1000 to 10000
CNc1nc(-c2cccnc2)nc2cc(-c3cc(F)cc(F)c3)ccc12 [Compound 1374]	1000 to 10000
O=C(c1ccc(-c2ccc3nc(-c4cccnc4)nc(Nc4ccc(F)c(Cl)c4)c3c2)cc1)N1CCCCC1 [Compound 665]	1000 to 10000
Fc1ccc(Nc2nc(-c3cnccn3)nc3ccccc23)cc1F [Compound 1220]	> 10000
COc1ccc2nc(-c3cccnc3)nc(Nc3nc(-c4cccc(C)c4)cs3)c2c1 [Compound 440]	1000 to 10000

Second part, the compound after the results:

IC50 [nM]	SMILES
< 1000	COc1ccc2nc(-c3cccnc3)nc(Nc3nc(-c4ccc(C#N)cc4)cs3)c2c1 [Compound 448]
1000 to 10000	COc1ccc2nc(-c3cccnc3)nc(Oc3ccccc3)c2c1 [Compound 348]
1000 to 10000	CNc1nc(-c2cccnc2)nc2ccc(-c3ccc(F)cc3F)cc12 [Compound 1611]
< 1000	COc1ccc2nc(-c3cccnc3)nc(Nc3ccc4c(c3)COC4)c2c1 [Compound 962]
1000 to 10000	COc1ccc2nc(-c3cccnc3)nc(Nc3nc4ccccc4n3C)c2c1 [Compound 407]
1000 to 10000	NC(=O)c1ccccc1-c1ccc2c(Nc3ccc(F)c(Cl)c3)nc(-c3cccnc3)nc2c1 [Compound 683]
< 1000	COc1ccc2nc(-c3cccnc3)nc(Nc3ccc4nonc4c3)c2c1 [Compound 332]
1000 to 10000	CNc1nc(-c2ccncc2)nc2ccc(-c3ccc(F)cc3F)cc12 [Compound 1467]
1000 to 10000	COc1ccc2nc(-c3cccnc3)nc(Nc3ccccc3C(=O)NCc3ccc4c(c3)CCC4)c2c1 [Compound 900]
1000 to 10000	CNc1nc(-c2cccnc2)nc2cc(-c3ccc(C)cc3)ccc12 [Compound 1362]
1000 to 10000	CN(C)c1nc(-c2cccnc2)nc2cc(-c3cc(F)ccc3F)ccc12 [Compound 1396]
1000 to 10000	COc1ccc2nc(-c3cccnc3)nc(Nc3nc(-c4cccc(C(F)(F)F)c4)cs3)c2c1 [Compound 449]
1000 to 10000	CC(=O)Nc1nc(-c2cccnc2)nc2ccc(-c3cccc(F)c3F)cc12 [Compound 1369]
1000 to 10000	CNc1nc(-c2cccnc2)nc2cc(-c3cccc(Cl)c3)ccc12 [Compound 1353]
1000 to 10000	CNc1nc(-c2cccnc2)nc2ccc(-c3cccc4occc34)cc12 [Compound 1370]
1000 to 10000	CNc1nc(-c2cccnc2)nc2cc(C)c(-c3ccc(F)c(F)c3)cc12 [Compound 1416]
< 1000	COc1ncc(-c2ccc3c(Nc4ccc(F)c(Cl)c4)nc(-c4cccnc4)nc3c2)cn1 [Compound 679]
1000 to 10000	COc1ccc2nc(-c3cccnc3)nc(Nc3nc(CC(C)C)cs3)c2c1 [Compound 460]
1000 to 10000	CNc1nc(-c2cccnc2)nc2cc(C)c(-c3ccc(F)cc3)cc12 [Compound 1414]
< 1000	COc1cncc(-c2ccc3nc(-c4cccnc4)nc(Nc4ccc5[nH]c(=O)sc5c4)c3c2)c1 [Compound 329]
< 1000	Fc1cc(F)cc(-c2ccc3c(Nc4ccc(F)c(Cl)c4)nc(-c4cccnc4)nc3c2)c1 [Compound 675]
< 1000	COc1cc(Cl)cc(-c2ccc3nc(-c4cccnc4)nc(Nc4ccc(F)c(Cl)c4)c3c2)c1 [Compound 663]
< 1000	COc1ccc2nc(-c3cccnc3)nc(Nc3nc(-c4ccccc4)c(C)s3)c2c1 [Compound 456]
